# In patent US7449477B2, “7-phenyl-isoquinoline-5-sulfonylamino derivatives as inhibitors of akt (protein kinase B)” (Eli Lilly and Company, priority 2003, dated 2008):
# Structures can show the parent of a compound that is named as a salt.
# Target: T1, active human Akt1 (Homo sapiens, UniProt P31749)
# T1 construct: Active human recombinant Akt1 (full-length) purified from Sf9 insect cells; purchased Upstate Biotechnology, Inc. 14-276; host or cells: Sf9 insect cells
# Assay: Akt1 Phosphorylation Assay (phosphocellulose filter-binding, 33P-Crosstide)
# Assay type: biochemical
# Conditions: active human recombinant Akt1 (full-length) 10 nM; 12.5 μM Crosstide; 20 μM ATP; 30 minutes at room temperature
# Outline: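 Full-length active human Akt1 (Sf9-expressed, 10 nM) phosphorylated 12.5 μM Crosstide with 20 μM ATP plus 1 μCi γ-33P-ATP in 35 mM HEPES pH 7.3, 15 mM MgCl2, 0.4 mM DTT, 4% DMSO. After 30 min at room temperature, H3PO4-stopped reactions were captured on phosphocellulose filters, washed and scintillation-counted.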
# T1 sequence (P31749 whole entry): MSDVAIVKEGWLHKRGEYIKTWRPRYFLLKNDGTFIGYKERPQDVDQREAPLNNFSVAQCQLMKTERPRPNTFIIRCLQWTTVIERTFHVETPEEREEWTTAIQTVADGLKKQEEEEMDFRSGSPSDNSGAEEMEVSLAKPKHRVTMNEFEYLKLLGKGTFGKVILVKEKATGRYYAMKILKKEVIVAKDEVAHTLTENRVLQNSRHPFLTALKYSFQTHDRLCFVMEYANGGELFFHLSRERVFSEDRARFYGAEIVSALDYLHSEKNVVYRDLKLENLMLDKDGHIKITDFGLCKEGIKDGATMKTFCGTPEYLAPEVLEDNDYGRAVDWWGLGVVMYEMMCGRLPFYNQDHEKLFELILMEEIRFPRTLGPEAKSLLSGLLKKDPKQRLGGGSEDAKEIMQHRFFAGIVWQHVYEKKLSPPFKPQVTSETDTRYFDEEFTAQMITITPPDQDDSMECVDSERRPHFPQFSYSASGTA
row,SMILES,IC50
1,"O=S(=O)(NCCNCCCc1ccc(Cl)cc1C1CCNCC1)c1cc(-c2ccccc2)cc2cnccc12 [Example 53, 7-Phenyl-isoquinoline-5-sulfonic acid {2-[3-(4-chloro-2-(piperidin-4-yl)-phenyl)-propylamino]-ethyl}-amide, trihydrochloride salt]",≤ 2000 nM
2,"O=S(=O)(NCCNCCCc1cccc(O)c1)c1cc(-c2ccc(O)cc2)cc2cnccc12 [Example 109, 7-(4-Hydroxy-phenyl)-isoquinoline-5-sulfonic acid {2-[3-(3-hydroxy-phenyl)-propylamino]-ethyl}-amide]",≤ 2000 nM
3,"O=S(=O)(NCCNCCCc1ccc(OC(F)(F)C(F)F)cc1)c1cc(-c2ccccc2)cc2cnccc12 [Example 27, 7-Phenyl-isoquinoline-5-sulfonic acid {2-[3-(4-(1,1,2,2-tetrafluoroethoxy)phenyl)-propylamino]-ethyl}-amide, dihydrochloride salt]",≤ 2000 nM
4,"N#Cc1ccc(CCCNCCNS(=O)(=O)c2cc(-c3ccccc3)cc3cnccc23)cc1O [Example 106, 7-Phenyl-isoquinoline-5-sulfonic acid {2-[3-(4-cyano-3-hydroxy-phenyl)-propylamino]-ethyl}-amide, bis-trifluoroacetate salt]",≤ 2000 nM
5,"CCCNS(=O)(=O)c1ccc(CCCNCCNS(=O)(=O)c2cc(-c3ccccc3)cc3cnccc23)cc1 [Example 21, 7-Phenyl-isoquinoline-5-sulfonic acid {2-[3-(4-(N-propylamino-sulfonyl)phenyl)-propylamino]-ethyl}-amide, dihydrochloride salt]",≤ 2000 nM

# Results, then the compound that gave them:
row,IC50,SMILES
1,≤ 2000 nM,"CS(=O)(=O)c1ccc(C(O)CCNCCNS(=O)(=O)c2cc(-c3ccccc3)cc3cnccc23)cc1 (stereo not drawn) [Example 79, 7-Phenyl-isoquinoline-5-sulfonic acid [2-(3-hydroxy-3-(4-methanesulfonyl-phenyl)-propylamino)-ethyl]-amide, dihydrochloride salt]"
2,≤ 2000 nM,"N#Cc1ccc(C(O)CCNCCNS(=O)(=O)c2cc(-c3ccccc3)cc3cnccc23)cc1 (stereo not drawn) [Example 75, 7-Phenyl-isoquinoline-5-sulfonic acid [2-(3-hydroxy-3-(4-cyanophenyl)-propylamino)-ethyl]-amide, dihydrochloride salt]"
3,≤ 2000 nM,"O=[N+]([O-])c1cccc(C(O)CCNCCNS(=O)(=O)c2cc(-c3ccccc3)cc3cnccc23)c1 (stereo not drawn) [Example 77, 7-Phenyl-isoquinoline-5-sulfonic acid [2-(3-hydroxy-3-(3-nitrophenyl)-propylamino)-ethyl]-amide, dihydrochloride salt]"
4,≤ 2000 nM,"O=S(=O)(NCCNCCCc1cccc(O)c1)c1cc(-c2cccc(O)c2)cc2cnccc12 [Example 107, 7-(3-Hydroxy-phenyl)-isoquinoline-5-sulfonic acid {2-[3-(3-hydroxy-phenyl)-propylamino]-ethyl}-amide]"
